The numbers were not newly measured in US20150246027A1, “FIXED DOSE PHARMACEUTICAL COMPOSITION COMPRISING DEFERASIROX AND DEFERIPRONE” (CIPLA LIMITED, priority 2012, published 2015), which cites them from elsewhere.

Molecules are shown by their SMILES. Values after ≈ are worked out from the molar mass of the structure shown. “Also recorded” adds a separate entry of the source.

For data set [1] the following is noted: for solubility in water (in words): water / aqueous media.
For data set [2] the following is noted: oral; majority excreted as inactive glucuronide metabolite.
The conditions of data set [3]: Bio-pharmaceutics Classification System.

On to `Cc1c(O)c(=O)ccn1C` [Deferiprone, 3-hydroxy-1,2-dimethylpyridin-4-one], for which, in data set [1] (water), the solubility in water is 12.95 mg/mL (≈ 93.1 mM). For the same compound, the “solubility in water (in words)” value in data set [1] is on record as “sparingly soluble”. Further, in data set [2], the “ingested dose excreted as the active form” value is reported as “less than 10%”.
Take `O=C(O)c1ccc(-n2nc(-c3ccccc3O)nc2-c2ccccc2O)cc1` [Deferasirox, 4-[3,5-bis(2-hydroxyphenyl)-[1,2,4]triazol-1-yl]enzoic acid]: the “permeability (in words)” value was “good permeability”. In addition, in data set [1] (pH 6.8, until the buffer strength is altered), the “solubility at pH 6.8 (in words)” value is given as “insoluble”. Further, in data set [1], the “solubility in water (in words)” value is “highly water-insoluble; also recorded: practically insoluble”. Also, the BCS class result in data set [3] is “Class II”.
